Assay results: patent US8309068B2, “Isolated polypeptides and methods of improving muscle strength” (Myostin Therapeutics Pty Ltd., priority 2006, dated 2012)
Where no end group is shown, it is not given here.

Columns and labels:
myostatin = assay: Myoblast chemotaxis assay, recovery of myostatin chemo-inhibition by antagonists; type: cell-based
Experimental: Primary myoblasts were cultured from the hind limb muscle of young (4 to 6 week old) or old (24 month old) mice, according to the published protocols (Allen et al., 1997; Partridge, 1997). Briefly, muscles were minced, and digested in 0.2% collagenase type 1A for 90 min. Cultures were enriched for myoblasts by pre-plating on uncoated plates for 3 hours. Myoblast cultures were maintained in growth media (GM) supplemented with 20% fetal calf serum (FCS), 10% HS and 1% CEE on 10% Matrigel coated plates, at 37° C./5% CO2. The extent of culture purity was assessed by flow cytometry analysis of MyoD expression after 48 hours in culture. Cells were harvested using trypsin, suspended at a concentration of 10^6 cells/200 μl and fixed overnight in 5 ml 70% ethanol at −20° C. Staining was performed for 30 min at room temperature using rabbit polyclonal anti-MyoD, 1:200 (Santa Cruz), followed by Alexa fluor 488 anti-rabbit conjugate, 1:500 (Molecular Probes). Analysis was carried out in duplicate with 10^4 cell events collected in each assay. Debris was excluded by gating on forward and side scatter profiles. Cells were analyzed by FACScan (Becton Dickinson). Macrophages were isolated by a peritoneal lavage technique and/or derived from bone marrow Zymosan-activated mouse serum (ZAMS) was prepared according to the published protocol (Colditz and Movat, 1984).
For the chemotaxis assay of myoblasts, a first assay was carried out on myoblasts from 2 year old mice as follows. DMEM containing 2% horse serum (HS), 5% chicken embryo extract (CEE) plus dialysis buffer was used as positive control. […] Plain DMEM was used as negative control. On a 24-well plate, the bottom wells were filled with test or control media. Seventy-five thousand cells were added to the top wells containing polyethylene terephthalate (PET) 0.8 μm membranes coated with 1% Matrigel. The plate was incubated for 7 h at 37° C., 5% CO2. […] The membrane was then fixed, stained in Gill's hematoxylin and wet mounted on slides. Migrated cells were counted on four representative fields per membrane and the average number plotted. The results are shown in FIG. 6 (myoblast migration from old mice) and FIG. 7 (myoblast migration from young mice).

satellite cells = assay: Satellite cell activation on single fibres from mice treated in vivo; conditions: 6 μg/g BW SC three times a week for six weeks; end of treatment
Experimental: To test the effect of short term myostatin antagonist treatment on satellite cell activation, single fibres were isolated from mice from each treatment group (as described in example 4, below), and cultured as described above. Satellite cell activation was investigated using anti-PCNA antibodies as described.
An animal trial was conducted to assess the effects of myostatin antagonist 300 in improving muscle function. Sixteen month old mice were divided into two groups of ten. While the control group received saline subcutaneous (SC) injections, the other group received myostatin antagonist 300 SC at 6 μg/gram of BW three times a week for six weeks. The functional improvement of sarcopenic muscle was assessed by measuring grip strength of mice at the end of trial. Grip strength was measured in Newtons.

[1] = tested on: skin biopsy wound in C56b1/6 mice; assay: In vivo skin biopsy trial; conditions: 4 mm biopsy punch; 6 μg/g SC day 1, 3, 5 and 7; vs saline, particularly later time points
Experimental: C56b1/6 mice at ˜10 months of age were anesthetized, the skin at the back of the neck was shaved, and two wounds made on the skin with a 4 mm biopsy punch. The mice were injected subcutaneously with either saline or 300 myostatin antagonist at 6 μg/g of body weight at day 1, 3, 5 and 7 after injury. The mice were allowed to heal for 5, 7, 14, 21 and 28 days, after which they were culled and the skin processed for histology.
For the histology, skin samples were fixed in 10% formalin, embedded and mounted in paraffin and stained with Masson's Trichrome stain. The sections were analysed for the size of wound area for each day following the treatments, and the values plotted.

[2] = tested on: C57B mice injected with Dexamethasone; assay: In vivo cachexia trial (Dexamethasone-induced)
Experimental: A study of chronic cachexia was designed whereby C57B mice, 4 weeks of age, were injected with the glucocorticoid drug Dexamethasone daily at a concentration of 1 mg/kg body weight. Three treatment groups were designed: 5 mice receiving daily injections of saline, 5 mice receiving daily injections of Dexamethasone and 5 mice receiving daily injections of Dexamethasone plus 300 antagonist at a concentration of 6μg/g body weight. Body weight of the mice was recorded daily and monitored closely for signs of cachexia. Food and water consumption was recorded to ensure that loss in body weight was not due to a loss of appetite or thirst. Body weights, fat-pad weights, and MyoD and Pax7 expression were assessed.

Wild type mice = assay: In vivo sarcopenia trial, 10 month administration in wild type mice
Experimental: Wild type mice (32 mice approx. 4-5 months of age) were injected subcutaneously fortnightly or monthly with 300 (6 μg/g body weight) or saline for a period of 10 month. Muscle strength was assessed using a grip strength apparatus (MK-380S, Muromachi; Tokyo, Japan) at the end of the trial. The maximum force exerted by a mouse while being pulled backward by the tail is recorded in Newtons. The mean of three grip tests for each mouse was calculated and the mean maximal force per group was determined.

## myostatin antagonist 300: recombinant peptide, amino acids 267-300 of bovine myostatin, with N terminal and C terminal tag (SEQ ID NO: 6) (DFGLDCDEHSTESRCCRYPLTVDFEAFGWDWIIA; cysteine pairing not given here; also: N- and C-terminal tags; listed as Homo sapiens)
myostatin; myoblasts from old (2 year old) mice, antagonist added at 5 μg/ml, myostatin 2.5 μg/ml
  rescue of chemo-inhibiting effects of myostatin on myoblast migration: rescued to levels similar to those observed in the control
myostatin; myoblasts from young (1 month old) mice
  rescue of chemo-inhibiting effects of myostatin on myoblast migration: rescued the migration of myostatin cells to control levels
Satellite cells
  satellite cell activation in fibres isolated from treated mice: increase observed
[1]
  wound area: smaller wound area
[2]; Dexamethasone and 300, right gastrocnemius, p<0.01
  Pax7 expression (Western blot): significant up-regulation (rescue)
[2]; Dexamethasone and 300, right gastrocnemius, p<0.05
  MyoD expression (Western blot): significant up-regulation (rescue)
[2]; Dexamethasone plus 300
  increase in left inguinal fat-pad weight: 33.2%
  increase in left retroperitoneal fat-pad weight: 23.3%
  increase in right inguinal fat-pad weight: 39%
  increase in right retroperitoneal fat-pad weight: 39.2%
[2]; co-treatment Dexamethasone 1 mg/kg and 300 6 μg/g daily
  average body weight loss: smaller average body weight loss
Wild type mice; 6 μg/g SC fortnightly for 10 month, data not shown
  increase of muscle function, fortnightly compared with monthly application: equally effective
Wild type mice; 6 μg/g SC monthly for 10 month, p<0.01
  grip strength over saline control at the end of the trial: significant increase
